Measured values: PubChem BioAssay (NCI)
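How tested: cells in 96-well plates exposed to compound for 48 hours at five concentrations. At the TGI there is no net growth.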

Legend:
Experiment in all cases: NCI anticancer screen, dose series, 48 h
XF 498 CNS = tested on: XF 498 CNS
A498 renal = tested on: A498 renal
LOX IMVI melanoma = tested on: LOX IMVI melanoma
DMS 273 small cell lung = tested on: DMS 273 small cell lung
M19-MEL melanoma = tested on: M19-MEL melanoma
K-562 leukemia = tested on: K-562 leukemia
EKVX NSCLC = tested on: EKVX NSCLC
SNB-78 CNS = tested on: SNB-78 CNS
HOP-18 NSCLC = tested on: HOP-18 NSCLC
A549 NSCLC = tested on: A549 NSCLC
RPMI-8226 leukemia = tested on: RPMI-8226 leukemia

| Compound | TGI (XF 498 CNS) [µM] | TGI (A498 renal) [µM] | TGI (LOX IMVI melanoma) [µM] | TGI (DMS 273 small cell lung) [µM] | TGI (M19-MEL melanoma) [µM] | TGI (K-562 leukemia) [µM] | TGI (EKVX NSCLC) [µM] | TGI (SNB-78 CNS) [µM] | TGI (HOP-18 NSCLC) [µM] | TGI (A549 NSCLC) [µM] | TGI (RPMI-8226 leukemia) [µM] |
| --- | --- | --- | --- | --- | --- | --- | --- | --- | --- | --- | --- |
| COC(=O)C(=O)C(C(=O)OC)C(=O)C(=O)Nc1cc(Cl)c(C)cc1S(=O)(=O)O (centres undefined) | > 100 | > 100 | > 100 | > 100 | > 100 | > 100 | > 100 | > 100 | > 100 | > 100 |  |
| Cc1ccc(S(=O)(=O)c2ccc(C)cc2[N+](=O)[O-])c([N+](=O)[O-])c1 | > 100 |  | > 100 | > 100 | > 100 | > 100 | > 100 | > 100 |  | > 100 | > 100 |
| COP12(OC)NC(=O)OC1(C(F)(F)F)c1ccccc1O2 (centres undefined) | > 100 |  | > 100 | > 100 | > 100 | > 100 |  | > 100 | > 100 | > 100 |  |
| O=C(O)C12C3CCC(C3)C1(C(=O)O)C1CCC2C1 (centres undefined) | > 100 | > 100 | 58.1 | > 100 | > 100 | > 100 | > 100 | > 100 | > 100 | > 100 | 48.4 |
| N#Cc1ccc(C2OCC3CC=CCC3CO2)cc1 (centres undefined) | > 100 |  | > 100 |  | > 100 | > 100 | > 100 | > 100 | > 100 | > 100 | > 100 |
| CN1CCS(=O)(=O)NC(Cc2ccccc2)C(=O)N2CCCC2C1=O (centres undefined) | > 100 | > 100 | > 100 | > 100 | > 100 | > 100 | > 100 | > 100 | > 100 | > 100 | > 100 |
| COc1ccccc1/C=C1\CCC(Cc2ccccc2)(CN(C)C)C1=O (centres undefined) | > 72.6 | 27.6 | 29.4 | 2.48 | > 58.9 | > 34.5 | 34.7 | > 23.2 | > 100 | > 100 | 39.1 |
| c1ccc2cc(C3NCCc4[nH]cnc43)ccc2c1 (centres undefined) |  | 88.5 | > 100 | > 100 | > 100 | > 100 |  | > 100 | > 100 | > 100 | > 100 |
| O=C1C(Cl)C(c2ccc(O)cc2)N1n1cnc2ccccc2c1=O (centres undefined) | > 66.8 | > 100 | 45.3 | > 100 | 46.9 | > 100 | > 100 | > 100 | > 100 | > 100 | 57.7 |
